Results: patent US8193150B2, “Improving vascular function with an inactivating mutant of a TRPC channel protein” (Sanofi, priority 2005, dated 2012)
Where a name gives a salt, the structure may show the parent alone.

Columns and labels:
TRPC3 = target: T1, TRPC3 (Homo sapiens, UniProt Q13507); experiment: FLIPR Ca2+ fluorescence assay in inducible Flp-In T-REx-TRPC3 HEK 293 cells; type: cell-based; details: mean±SEM; for Fluorescence changes (F/F0): 200 nM trypsin, t=60 sec, n=9
T1 construct: expressed in transfected cells
T1 sequence (Q13507 74-921): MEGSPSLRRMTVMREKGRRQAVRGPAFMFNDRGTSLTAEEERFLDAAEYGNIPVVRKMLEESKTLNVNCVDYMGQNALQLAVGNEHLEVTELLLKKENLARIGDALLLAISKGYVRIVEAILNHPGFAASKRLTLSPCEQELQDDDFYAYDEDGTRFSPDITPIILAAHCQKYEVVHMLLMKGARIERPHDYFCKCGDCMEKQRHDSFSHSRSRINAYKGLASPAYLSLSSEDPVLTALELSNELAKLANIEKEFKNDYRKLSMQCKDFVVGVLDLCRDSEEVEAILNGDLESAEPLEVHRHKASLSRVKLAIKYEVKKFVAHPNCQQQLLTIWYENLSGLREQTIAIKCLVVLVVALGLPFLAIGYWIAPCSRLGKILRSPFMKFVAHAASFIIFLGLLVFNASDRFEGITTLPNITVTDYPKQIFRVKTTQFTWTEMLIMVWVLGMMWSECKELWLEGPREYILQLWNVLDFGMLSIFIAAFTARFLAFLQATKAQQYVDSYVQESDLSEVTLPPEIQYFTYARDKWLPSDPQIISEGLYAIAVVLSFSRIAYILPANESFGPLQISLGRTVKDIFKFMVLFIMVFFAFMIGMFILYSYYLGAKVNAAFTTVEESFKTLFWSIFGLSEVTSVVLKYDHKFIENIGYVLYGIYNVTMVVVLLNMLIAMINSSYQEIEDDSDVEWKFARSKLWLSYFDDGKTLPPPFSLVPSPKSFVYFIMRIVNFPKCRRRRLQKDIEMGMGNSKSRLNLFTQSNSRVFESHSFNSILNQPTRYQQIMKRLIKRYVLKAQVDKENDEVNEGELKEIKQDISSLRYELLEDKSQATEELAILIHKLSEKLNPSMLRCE
Description: (§1) To develop an assay for the identification of TRPC channel modulators, recombinant HEK 293 cell lines were produced using the Flp-In T-REx system (Invitrogen, Karsruhe, Germany) that express TRPC3 (accession # U47050) or TRPC6 (accession # AF080394) cDNAs under the control of an inducible promoter. Channel cDNAs were amplified by standard techniques and cloned into pcDNA5/FRT/TO (Invitrogen, Karlsruhe, Germany). After transfection of Flp-In T-Rex 293 cells with the channel constructs stable cell lines were selected with hygromycin. Cells were maintained according to the manufactures instructions and channel expression of was induced by addition of 1 μg/ml doxycycline for 20-30 h. Cells were plated into 96 well poly-d-lysine coated black walled clear bottom microtiter plates (BD Biosciences, Bedford, Mass.) at a density of 40000-50000 cells/well 20-30 h before experiments. […] Ca^2+ measurements were performed using a 96 well Fluorescence Imaging Plate Reader (FLIPR), (Molecular Devices Corporation, Sunnyvale, Calif.). […]
(§2) Fluorescence changes in fluo-4 loaded cells were measured using FLIPR II. […] Shown are mean fluorescence values±SEM from 9 wells each. Fluorescence values were normalized to the mean baseline fluorescence (F0).
(§3) To identify modulators of TRPC3 or TRPC6 with the assays described above induced cells were used and test compounds are added to the wells before or after application of OAG. The expected effect of inhibitors would be a reduction of the fluorescence increase. Channel activators would lead to a further increase of the OAG-evoked signal or induce an OAG-independent fluorescence increase. […]
(§4) Fluorescence changes induced by 30 μM OAG in TRPC3-and TRPC6 expressing cells were measured in the presence of the given concentrations of SKF 96365. […] Inhibition is expressed as % of control fluorescence in the absence of SKF 96365. […]

TRPC6 = target: T2, TRPC6 (Homo sapiens, UniProt Q9Y210); experiment: FLIPR Ca2+ fluorescence assay in inducible Flp-In T-REx-TRPC6 HEK 293 cells; type: cell-based; details: mean±SEM; for Fluorescence changes (F/F0): 200 nM trypsin, t=60 sec, n=12
T2 construct: expressed in transfected cells
T2 sequence (Q9Y210 1-931): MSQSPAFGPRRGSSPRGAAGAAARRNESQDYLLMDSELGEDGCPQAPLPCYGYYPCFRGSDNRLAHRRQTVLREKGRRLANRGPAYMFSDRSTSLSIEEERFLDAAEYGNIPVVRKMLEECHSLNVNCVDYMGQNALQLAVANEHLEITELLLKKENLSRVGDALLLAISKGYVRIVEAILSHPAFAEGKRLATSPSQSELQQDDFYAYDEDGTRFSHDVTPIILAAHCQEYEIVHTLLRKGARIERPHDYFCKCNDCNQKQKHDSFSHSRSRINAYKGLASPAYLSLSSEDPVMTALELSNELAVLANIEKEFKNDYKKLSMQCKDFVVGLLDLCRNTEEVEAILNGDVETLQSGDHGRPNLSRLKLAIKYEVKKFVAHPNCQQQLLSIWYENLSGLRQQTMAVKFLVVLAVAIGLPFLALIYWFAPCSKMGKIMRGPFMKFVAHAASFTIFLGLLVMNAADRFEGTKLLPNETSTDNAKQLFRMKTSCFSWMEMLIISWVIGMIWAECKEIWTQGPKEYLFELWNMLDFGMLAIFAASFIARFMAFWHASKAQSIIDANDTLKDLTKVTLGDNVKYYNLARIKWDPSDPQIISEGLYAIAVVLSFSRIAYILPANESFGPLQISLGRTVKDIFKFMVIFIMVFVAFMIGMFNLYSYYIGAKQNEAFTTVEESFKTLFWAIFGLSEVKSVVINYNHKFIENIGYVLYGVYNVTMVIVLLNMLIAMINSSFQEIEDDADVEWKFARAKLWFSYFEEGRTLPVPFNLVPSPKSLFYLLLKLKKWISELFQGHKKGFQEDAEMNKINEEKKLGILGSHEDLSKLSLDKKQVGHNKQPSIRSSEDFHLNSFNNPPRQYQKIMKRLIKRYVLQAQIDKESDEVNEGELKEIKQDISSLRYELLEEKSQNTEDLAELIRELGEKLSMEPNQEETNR
Description: as §1, §2, §3, §4

Compound | Fluorescence changes (F/F0) (TRPC3; induced Flp-In T-REx-TRPC3 cells) | Fluorescence changes (F/F0) (TRPC3; non-induced Flp-In T-REx-TRPC3 cells) | Fluorescence changes (F/F0) (TRPC6; induced Flp-In T-REx-TRPC6 cells) | Fluorescence changes (F/F0) (TRPC6; non-induced Flp-In T-REx-TRPC6 cells) | IC50 (TRPC3; doxycycline-induced cells, 30 μM OAG, n=8, read-out: IC50, inhibition of OAG-activated fluorescence responses in TRPC3 expressing cells) | IC50 (TRPC6; doxycycline-induced cells, 30 μM OAG, n=8, read-out: IC50, inhibition of OAG-activated fluorescence responses in TRPC6 expressing cells)
trypsin | 2.71 ± 0.022 (n = 9) | 1.65 ± 0.034 (n = 9) | 2.26 ± 0.05 (n = 12) | 0.88 ± 0.009 (n = 12) | – | –
COc1ccc(CCCOC(Cn2ccnc2)c2ccc(OC)cc2)cc1 (stereo not drawn) [SKF 96365, 1-(β-[3-(4-methoxyphenyl)propoxy]-4-methoxyphenethyl)-1H-imidazole-HCl] | – | – | – | – | 1.8 µM | 5.04 ± 0.17 µM
